Entries after “also recorded” stand apart in the source; their conditions may differ. Blank lines part the entries; values can stand above or below the compound they belong to.
Assays:
[1] = target: T1, human CB2R (Homo sapiens, UniProt P34972); assay: cAMP Hunter eXpress GPCR assay, human CB2: inhibition of forskolin-stimulated cAMP in CHO cells; type: cell-based; parameters: host or cells: CHO cells
Procedure: Briefly, cAMP Hunter eXpress Cells were seeded 18-24 h prior to the in a 96-well tissue culture treated assay plate and incubated in 5% CO2 at 37° C. in a humidified incubator. After removal of cell media, agonist compound and forskolin prepared in cell assay buffer was added and incubated at 37° C. The CB1 cAMP assay was stimulated with 20 μM final concentration of forskolin with 40 minutes incubation time. The CB2 cAMP assay was stimulated with 25 μM final concentration of forskolin with 35 minutes incubation time. The assay was stopped by incubation with antibody and working solution for 1 h at room temperature. After over 3 h incubation at room temperature in the dark with enzyme acceptor solution, chemiluminescence was measured on a CLARIOstar plate reader (BMG LABTECH Inc., Cary, NC, USA).

[2] = target: T1, human CB2R; assay: PathHunter β-Arrestin assay, beta-arrestin recruitment; type: cell-based; conditions: for Activation of beta-arrestin pathway (in words): hCB2, CP-55940 as control
Procedure: The assay was performed using the PathHunter β-Arrestin human CB2 cell line (catalog no. 93-0706C2) and using the PathHunter® β-Arrestin Assay for GPCR Cell Lines (source: DiscoveRx, Fremont, CA, USA), according to the manufacturer's protocol (https://www.discoverx.com/tools-resources/document-resource-library/documents/user-manual-pathhunter-% CE % B2-arrestin-assay-for-gpcr-c). Briefly, cells were seeded at a density of 10,000 cells per well in a 96-well plate and incubated overnight (16-18 h) in a humidified atmosphere at 37° C. and 5% C02. Agonist prepared in PBS was added and the assay plate incubated for 3 h in a humidified atmosphere at 37° C. and 5% C02. Working detection solution was added and the plate was incubated for 1 h in the dark at room temperature. Chemiluminescence was measured on an CLARIOstar plate reader (BMG LABTECH Inc., Cary, NC, USA).

[3] = test system: Male C57Bl6J mice; assay: Spontaneous locomotor activity in activity chamber; type: in vivo, mouse; conditions: mouse, in vivo, ip
[4] = test system: mice dosed with LPS and ATP; assay: LPS model of systemic inflammation, Luminex cytokines in plasma and brain homogenate; type: in vivo, mouse; conditions: 0.5 mg/kg ip daily for 10 days, LPS 100 ug/kg ip, ATP 50 mg/kg ip
Procedure: Mice were dosed with Compound 24 (0.5 mg/kg ip) or vehicle daily for 10 days. Lipopolysaccharide (LPS) (100 ug/kg ip) was given 1 hour after 10th dose on final day. ATP (50 mg/kg ip) was given 2 hours after LPS and then mice were sacrificed 30 minutes after ATP (2.5 hours after LPS). Multiplex tissue cytokines were analyzed in plasma and brain homogenate from all brain regions dissected above using a Luminex 38-plex mouse cytokine assay as previously described for aged versus young mice (Evans et al. Neurobiol Aging 2021; 106:241-56). The Luminex assay was performed according to the manufacturer's instructions. Briefly, tissue samples were homogenized in RIPA buffer containing proteinase inhibitor by pulling tissue through a 23 g needle (15×) and then sonicating for 3×3 second pulses. Homogenate was spun at 14,000 g for 10 minutes, and protein concentrations were determined by the Pierce BCA assay. Samples were diluted to a common concentration of 6 μg/μL. Plasma samples were diluted 1:3. Plasma and brain homogenate samples were run in duplicate on a 96 well plate alongside standard curve and quality control calibration samples.

[5] = test system: Male C57BL/6J mice brain tissue; assay: Brain cytokine gene expression (TaqMan qPCR); type: in vivo, mouse; conditions: 0.1 and 0.3 mg/kg or 1, 2, and 3 mg/kg
Procedure: Male C57BL/6J mice, 6-8 weeks old were dosed on Day 1,2,3,4,5, and 10, or 11 with vehicle or CBS-159 at 0.1 and 0.3 mg/kg or 1, 2, and 3 mg/kg. Mice were terminated on Day 10 or 11, 3.5 hours after dosing vehicle or CBS-159. Total RNA was isolated from brain tissue dissections using the RNeasy Lipid Tissue Mini Kit (Qiagen) (see Evans et al. Neurobiol. Dis. 2020, 146:105089). One microgram of total RNA was transcribed into cDNA (Superscript III, Invitrogen). PCR was performed in triplicate using TaqMan gene expression master mix (Applied Bio-systems) and validated TaqMan gene expression assays, Tnfa (Mm00443258_m1), IL1β (Mm00434228_m1), IL6 (Mm00446190_m1),), IL18 (Mm00434226_m1), and glyceraldehyde-3-phosphate dehydrogenase (Gapdh; Mm99999915_g1). Amplification was performed using a StepOnePlus system (Applied Biosystems). Fold changes of expression relative to control were determined after normalization to Gapdh. Relative quantification and old change were calculated by the comparative CT method (Schmittgen and Livak, Nat. Protoc. 2008, 3(6):1101-1108).

[6] = test system: Heroin SA-trained rats; assay: Heroin self-administration model; type: in vivo, rat; conditions: treated daily during 21 days of abstinence, 3 mg/kg i.p., vs vehicle
Procedure: In the heroin SA model, rats were surgically implanted with a catheter that connects to their heart. […] They learned to press an active lever to get an infusion of heroin through their implanted tube. […] Heroin SA-trained rats underwent 21 days of abstinence after training. […] Heroin-seeking behaviors were assessed before and after the abstinence period.

[7] = test system: heroin-addicted mice; assay: Naloxone-precipitated withdrawal model; type: in vivo, mouse; conditions: 3 mg/kg i.p., jumping 1 minute after naloxone 50 mg/kg
Procedure: The naloxone-precipitated withdrawal model uses an opioid receptor antagonist, naloxone, to trigger highly aversive withdrawal symptoms (e.g., jumping, burrowing, “wet-dog” shakes, hyperreactivity) in heroin-addicted mice. Signs such as jumping can be quantified after administration of naloxone (“naloxone precipitated withdrawal”). […] On Day 7, 60 minutes after a final drug and heroin dose (40 mg/kg), naloxone was administered (50 mg/kg), and jump count measured for 1-15 minutes.

[8] = cAMP assay, CP-55940 as full agonist control

T1 sequence (P34972 whole entry): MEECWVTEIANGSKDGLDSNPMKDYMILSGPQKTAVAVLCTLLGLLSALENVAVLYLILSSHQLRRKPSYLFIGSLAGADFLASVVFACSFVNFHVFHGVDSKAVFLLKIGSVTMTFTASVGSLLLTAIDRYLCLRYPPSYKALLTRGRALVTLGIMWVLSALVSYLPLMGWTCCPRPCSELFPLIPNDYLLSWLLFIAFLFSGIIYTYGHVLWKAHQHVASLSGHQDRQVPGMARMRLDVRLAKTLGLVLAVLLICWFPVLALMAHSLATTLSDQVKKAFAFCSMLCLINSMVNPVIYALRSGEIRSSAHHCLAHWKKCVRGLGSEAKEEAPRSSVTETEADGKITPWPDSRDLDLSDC

melting point: 231 to 235 °C
Compound: CN1CCN(c2nccc3c2nc(-c2ccccc2Cl)n3C2CCOCC2)CC1 [Compound 1, 2-(2-chlorophenyl)-4-(4-methylpiperazin-1-yl)-1-(tetrahydro-2H-pyran-4-yl)-1H-imidazo[4,5-c]pyridine]

melting point: 248 to 252 °C
Compound: Cc1cc2c(nc(-c3ccccc3Cl)n2C2CCOCC2)c(N2CCN(C)CC2)n1 [Compound 2, 2-(2-chlorophenyl)-6-methyl-4-(4-methylpiperazin-1-yl)-1-(tetrahydro-2H-pyran-4-yl)-1H-imidazo[4,5-c]pyridine]

melting point: 184 to 188 °C
Compound: CC(C)(C)c1cc(NC(=O)N2CCCN2c2ccc(C(F)(F)F)cn2)on1 [Compound 3, N-(3-(tert-butyl)isoxazol-5-yl)-2-(5-(trifluoromethyl)pyridin-2-yl)pyrazolidine-1-carboxamide]

Compound: CC(C)(C)c1cc(NC(=O)N2CCCN2c2ccc(C(F)(F)F)cc2)on1 [Compound 11, N-(3-(tert-butyl)isoxazol-5-yl)-2-(4-(trifluoromethyl)phenyl)pyrazolidine-1-carboxamide]
Emax ([1]; CHO, read-out: CB2 Maximum Activation): 114%
EC50 ([1]; Table 3; cAMP assay, 25 μM forskolin, 35 minutes; read-out: CB2 EC50): 0.0752 µM
CB2 agonist character (in words) [1, 8]: full agonist
Selectivity for CB2 over CB1 (in words) ([1]; cAMP assays hCB1 vs hCB2): selective for CB2 over CB1
EC50 [2]: > 1 µM
Activation of beta-arrestin pathway (in words) [2]: weakly/partially activates the beta-arrestin pathway
Emax ([2]; read-out: B-arrestin Maximum Activation): 35.5%
melting point: 211 to 215 °C

CB2 agonist character (in words) [1, 8]: partial agonist of CB2
Selectivity for CB2 over CB1 (in words) ([1]; cAMP assays hCB1 vs hCB2): selective for CB2 over CB1
Activation of beta-arrestin pathway (in words) [2]: almost no beta-arrestin activity
Compound: O=C(Nc1cc(C2CC2)no1)N1CCCN1c1ccc(C(F)(F)F)cc1 [Compound 16, N-(3-cyclopropylisoxazol-5-yl)-2-(4-(trifluoromethyl)phenyl)pyrazolidine-1-carboxamide]

melting point: 181 to 185 °C
Compound: CC(C)(C)c1cc(NC(=O)N2CCCN2c2cc(F)cc(F)c2)on1 [Compound 19, N-(3-(tert-butyl)isoxazol-5-yl)-2-(3,5-difluorophenyl)pyrazolidine-1-carboxamide]

melting point: 190 to 194 °C
Compound: CC(C)(C)c1cc(NC(=O)N2CCCN2c2ccc(F)cc2)on1 [Compound 21, N-(3-(tert-butyl)isoxazol-5-yl)-2-(4-fluorophenyl)pyrazolidine-1-carboxamide]

CB2 agonist character (in words) [1, 8]: potent agonists of CB2
Selectivity for CB2 over CB1 (in words) ([1]; cAMP assays hCB1 vs hCB2): selective for CB2 over CB1
Activation of beta-arrestin pathway (in words) [2]: weak beta-arrestin activity
Compound: CC(C)(CO)c1cc(NC(=O)N2CCCN2c2ccc(C(F)(F)F)cn2)on1 [Compound 24, N-(3-(1-hydroxy-2-methylpropan-2-yl)isoxazol-5-yl)-2-(5-(trifluoromethyl)pyridin-2-yl)pyrazolidine-1-carboxamide]
Distance moved / spontaneous locomotor activity [3]: does not affect spontaneous locomotor activity in mice
Anti-inflammatory function in LPS model of systemic inflammation [4]: has anti-inflammatory activity; also recorded: displays anti-inflammatory function in a LPS model of systemic inflammation
Anti-inflammatory function in the brain [5]: displays anti-inflammatory function in the brain

melting point: 175 to 179 °C
Compound: CC(C)(C)c1cc(NC(=O)N2CCCC2c2ccc(C(F)(F)F)cc2)no1 (stereo not drawn) [Compound 26, N-(5-(tert-butyl)isoxazol-3-yl)-2-(4-(trifluoromethyl)phenyl)pyrrolidine-1-carboxamide]

melting point: 186 to 190 °C
Compound: CC(C)(C)c1cc(NC(=O)N2CCC(=O)N2c2ccc(C(F)(F)F)cc2)on1 [Compound 29, N-(3-(tert-butyl)isoxazol-5-yl)-3-oxo-2-(4-(trifluoromethyl)phenyl)pyrazolidine-1-carboxamide]

melting point: 175 to 179 °C
Compound: CC(C)(C)c1cc(NC(=O)N2CCCN2)on1 [Compound 31, N-(3-(tert-butyl)isoxazol-5-yl)pyrazolidine-1-carboxamide]

Emax ([1]; CHO; read-out: CB2 Maximum Activation): 52.6%
Emax ([2]; read-out: CB2 Maximum Activation): 51.7%
Compound: Cc1nc(N2CCN(C)CC2)c2nc(-c3ccccc3Cl)n(C3CCOCC3)c2n1 [LY2828360, reference compound]
Abstinence-induced heroin seeking [6]: less abstinence-induced heroin seeking than the vehicle-treated rats
Negative effects of heroin withdrawal (jumping behavior after naloxone) [7]: reduce the negative effects of heroin withdrawal
Activation of beta-arrestin pathway (in words) [2]: weakly/partially activates the beta-arrestin pathway

Source: patent publication US20240158384A1, “CB2 RECEPTOR AGONISTS” (The Board of Trustees of the Leland Stanford Junior …, priority 2020, published 2024)
